Laboratory results as given in article PMC5831360 (Nature chemical biology, 2017).
Several values for one entry are separate records, joined by “and”; a condition that tells them apart may be missing. Identical values can stand only once.

Legend:
[1] = target: SPIN1-H3K4me3 interaction (Homo sapiens, UniProt Q9Y657); test: Competition pulldown, bead-bound H3K4me3 peptide and GST-SPIN1; format: binding; settings: untagged compound, increasing concentrations
GFP-53BP1 = GFP-53BP1 (Homo sapiens, UniProt Q12888); format: binding; settings: HEK293T whole cell lysate, bead-immobilized biotinylated compound
[2] = target: GFP-SPIN1 in transfected HeLa cells (Homo sapiens, UniProt Q9Y657); test: Cellular thermal shift assay; format: cell-based; settings: 20 μM, overnight
[3] = target: Spindlin1 (SPIN1), three Tudor domains (Homo sapiens, UniProt Q9Y657); test: Protein domain microarray probing with biotin-tagged compounds; format: binding; settings: biotinylated compound, 1 μM, Cy3-streptavidin
Tudor domains of PHF20 [4] = target: Tudor domains of PHF20 (Homo sapiens, UniProt Q9BVI0); test: as above; format: binding; settings: biotinylated compound, 1 μM, Cy3-streptavidin
Target sequence in this assay (Q9BVI0 4-147): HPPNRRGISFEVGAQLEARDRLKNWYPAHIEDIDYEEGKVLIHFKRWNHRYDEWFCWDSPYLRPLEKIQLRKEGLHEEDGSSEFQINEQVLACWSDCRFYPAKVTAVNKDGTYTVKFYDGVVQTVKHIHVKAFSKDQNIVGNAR

PHF20L1 = test: as above; format: binding, human; settings: biotinylated compound, 1 μM, Cy3-streptavidin
Tudor domains of 53BP1 [5] = target: T1, Tudor domains of 53BP1 (Homo sapiens, UniProt Q12888); test: as above; format: binding; settings: biotinylated compound, 1 μM, Cy3-streptavidin
subset of MBT domains = test: as above; format: binding, human; settings: biotinylated compound, 1 μM, Cy3-streptavidin
[6] = target: yeast Tudor domain (SPF30^sp) (Schizosaccharomyces pombe, UniProt O94519); test: as above; format: binding; settings: biotinylated compound, 1 μM, Cy3-streptavidin
SPIN1 (SPIN1_50–262) = SPIN1 (SPIN1_50–262) (Homo sapiens, UniProt Q9Y657); test: Isothermal titration calorimetry; format: binding; settings: read-out: dissociation constant (Kd) with SPIN1; ITC, 25 °C, pH 7.5
recombinant SPIN1 = recombinant SPIN1 (Homo sapiens, UniProt Q9Y657); test: In vitro thermal shift assay; format: binding; settings: 100 μM compound, 1 mg/mL SPIN1, Sypro Orange
SPIN1-TCF4 interaction = SPIN1-TCF4 interaction (Homo sapiens, UniProt Q9Y657); test: SPIN1-TCF4 interaction assay; format: binding
GFP-SPIN1(FL) = GFP-SPIN1(FL) (Homo sapiens, UniProt Q9Y657); format: binding; settings: HEK293 whole cell lysate, bead-immobilized biotinylated compound
[7] = test system: SPIN1 target genes (rRNA, IL1B, BST2, C1QTNF1, ALDH1A3, IFI44L) in T778 cells; test: RT-qPCR of SPIN1-regulated genes after compound treatment; format: cell-based, human; settings: 4 days
[8] = test system: SPIN1 target genes in GFP-SPIN1 transfected T778 cells; test: RT-qPCR of SPIN1 target genes after GFP-SPIN1 overexpression; format: cell-based, human; settings: 10 μM, 24 h after GFP-SPIN1 transfection
[9] = test system: Spindlin1-H3K4me3 interaction; settings: read-out: IC50, in vitro inhibition of Spindlin1-H3K4me3 interaction; AlphaLISA; cited from earlier work
SPIN1 = settings: cited from earlier work
Tudor domains of 53BP1 [10] = target: T1, Tudor domains of 53BP1; test: Isothermal titration calorimetry; format: binding; settings: Kd for 53BP1, ITC counter screen
Tudor domains of PHF20 [11] = target: Tudor domains of PHF20 (Homo sapiens, UniProt Q9BVI0); test: Isothermal titration calorimetry; format: binding; settings: Kd for PHF20, ITC counter screen
Target sequence in this assay (Q9BVI0 83-147 limits assumed): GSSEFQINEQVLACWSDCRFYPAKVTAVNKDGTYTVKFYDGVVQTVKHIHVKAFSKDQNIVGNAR

MBT domains of L3MBTL1 = MBT domains of L3MBTL1 (Homo sapiens, UniProt Q9Y468); test: Isothermal titration calorimetry; format: binding; settings: Kd for L3MBTL1, ITC counter screen
MBT domains of L3MBTL3 = MBT domains of L3MBTL3 (Homo sapiens, UniProt Q96JM7); test: Isothermal titration calorimetry; format: binding; settings: Kd for L3MBTL3, ITC counter screen
SPIN2a/b = test: Chemiprecipitation of SPIN family members with tagged compound; format: binding
SPIN4 = SPIN4 (Homo sapiens, UniProt Q56A73); test: as above; format: binding
T778 liposarcoma cells = test: RNA-seq of compound-treated versus SPIN1 knockdown cells; format: cell-based, human; settings: 10 μM, 3 days
[12] = test system: GFP-SPIN1 recruitment to promoter regions of rDNA and IL1B in T778 cells; test: α-GFP ChIP-qPCR of SPIN1 chromatin association; format: cell-based, human; settings: 10 μM, overnight

T1 sequence (Q12888 1484-1603 limits assumed): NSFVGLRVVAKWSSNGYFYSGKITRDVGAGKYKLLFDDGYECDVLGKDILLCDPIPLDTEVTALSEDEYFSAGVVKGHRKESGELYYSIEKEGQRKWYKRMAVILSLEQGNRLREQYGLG
Chain of GFP-SPIN1 in transfected HeLa cells (Q9Y657 whole entry, the tested form may be a part): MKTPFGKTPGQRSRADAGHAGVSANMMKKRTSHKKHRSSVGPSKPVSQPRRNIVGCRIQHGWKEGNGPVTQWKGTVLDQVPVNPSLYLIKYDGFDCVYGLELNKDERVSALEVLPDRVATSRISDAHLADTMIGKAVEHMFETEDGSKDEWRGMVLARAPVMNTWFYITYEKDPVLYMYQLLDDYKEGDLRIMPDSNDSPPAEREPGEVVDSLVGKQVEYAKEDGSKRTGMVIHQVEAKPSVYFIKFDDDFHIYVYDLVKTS
Chain of MBT domains of L3MBTL1 (Q9Y468 274-585 limits assumed): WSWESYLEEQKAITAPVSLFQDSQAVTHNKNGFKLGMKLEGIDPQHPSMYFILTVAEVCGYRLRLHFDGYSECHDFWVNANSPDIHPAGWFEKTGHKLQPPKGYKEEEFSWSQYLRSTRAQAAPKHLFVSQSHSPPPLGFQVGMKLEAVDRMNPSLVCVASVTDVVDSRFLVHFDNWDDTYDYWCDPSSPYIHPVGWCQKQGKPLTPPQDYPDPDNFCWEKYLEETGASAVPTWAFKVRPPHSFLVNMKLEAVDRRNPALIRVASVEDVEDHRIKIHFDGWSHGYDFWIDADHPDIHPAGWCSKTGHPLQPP
Chain of SPIN1-H3K4me3 interaction (Q9Y657 50-262): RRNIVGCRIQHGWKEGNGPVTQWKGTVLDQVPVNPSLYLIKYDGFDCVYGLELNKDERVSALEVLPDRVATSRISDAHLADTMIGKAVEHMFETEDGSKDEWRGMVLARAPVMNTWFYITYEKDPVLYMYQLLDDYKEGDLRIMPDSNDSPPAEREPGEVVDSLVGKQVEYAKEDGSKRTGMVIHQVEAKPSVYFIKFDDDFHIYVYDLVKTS
Chain of MBT domains of L3MBTL3 (Q96JM7 232-543 limits assumed): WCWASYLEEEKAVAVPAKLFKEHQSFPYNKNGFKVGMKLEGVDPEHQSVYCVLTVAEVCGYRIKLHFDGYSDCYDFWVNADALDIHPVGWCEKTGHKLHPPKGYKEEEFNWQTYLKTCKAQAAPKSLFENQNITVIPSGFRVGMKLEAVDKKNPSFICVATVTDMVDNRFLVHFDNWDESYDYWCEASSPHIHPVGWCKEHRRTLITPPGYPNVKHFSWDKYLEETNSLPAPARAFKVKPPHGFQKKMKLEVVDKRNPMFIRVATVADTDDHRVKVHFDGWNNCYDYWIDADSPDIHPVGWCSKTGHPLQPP
Chain of SPIN1-TCF4 interaction (Q9Y657 whole entry): as the sequence (Q9Y657 whole entry, the tested form may be a part) above
Chain of GFP-SPIN1(FL) (Q9Y657 whole entry): as the sequence (Q9Y657 whole entry, the tested form may be a part) above
Chain of Spindlin1 (SPIN1), three Tudor domains (Q9Y657 whole entry, the tested form may be a part): as above
Chain of yeast Tudor domain (SPF30^sp) (O94519 76-139 limits assumed): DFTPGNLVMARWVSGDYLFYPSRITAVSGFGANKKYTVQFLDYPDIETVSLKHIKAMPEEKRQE
Chain of SPIN4 (Q56A73 whole entry): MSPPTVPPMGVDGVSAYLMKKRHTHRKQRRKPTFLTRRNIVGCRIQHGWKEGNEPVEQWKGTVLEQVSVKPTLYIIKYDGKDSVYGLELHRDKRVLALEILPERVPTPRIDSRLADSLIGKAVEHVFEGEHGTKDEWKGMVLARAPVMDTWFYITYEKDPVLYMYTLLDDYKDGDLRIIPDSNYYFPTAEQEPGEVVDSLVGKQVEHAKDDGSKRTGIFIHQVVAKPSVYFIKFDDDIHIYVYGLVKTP
Chain of GFP-53BP1 (Q12888 1144-1709): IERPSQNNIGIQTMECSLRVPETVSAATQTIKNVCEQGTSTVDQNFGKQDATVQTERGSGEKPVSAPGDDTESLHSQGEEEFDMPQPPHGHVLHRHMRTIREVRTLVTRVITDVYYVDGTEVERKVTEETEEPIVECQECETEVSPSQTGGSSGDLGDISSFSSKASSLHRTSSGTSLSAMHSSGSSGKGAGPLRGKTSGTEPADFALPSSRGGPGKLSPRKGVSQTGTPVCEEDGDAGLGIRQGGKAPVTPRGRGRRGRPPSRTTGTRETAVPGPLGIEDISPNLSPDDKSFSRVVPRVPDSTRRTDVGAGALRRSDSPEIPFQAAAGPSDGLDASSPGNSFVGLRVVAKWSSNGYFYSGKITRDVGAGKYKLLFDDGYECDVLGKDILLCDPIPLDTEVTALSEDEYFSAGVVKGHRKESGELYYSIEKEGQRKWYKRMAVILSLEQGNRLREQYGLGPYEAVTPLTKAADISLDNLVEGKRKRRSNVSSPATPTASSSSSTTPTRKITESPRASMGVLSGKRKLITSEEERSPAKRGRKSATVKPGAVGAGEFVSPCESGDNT
Chain of recombinant SPIN1 (Q9Y657 50-262): as the sequence (Q9Y657 50-262) above
Chain of SPIN1 (SPIN1_50–262) (Q9Y657 50-262): as above

O=C(c1ccc(C(=O)N2CCC(N3CCCC3)CC2)c(Nc2ccccc2)c1)N1CCC(N2CCCC2)CC1 [UNC1215, reference compound]
inhibition of H3K4me3 peptide - GST-SPIN1 interaction [1]: not active
interaction of tagged compound with GFP-53BP1 (GFP-53BP1): able to interact with GFP-53BP1
stabilization of GFP-SPIN1 at high temperatures (CETSA) [2]: not with UNC1215

O=C(c1ccc(C(=O)N2CCC(CCN3CCCC3)CC2)c(Nc2ccccc2)c1)N1CCC(CCN2CCCC2)CC1 [EML405]
binding to Spindlin1 on protein domain microarray [3]: bound strongly
binding to Tudor domains of PHF20 on protein domain microarray (Tudor domains of PHF20 [4]): bound strongly
binding to PHF20L1 on protein domain microarray (PHF20L1): bound strongly
binding to Tudor domains of 53BP1 on protein domain microarray (Tudor domains of 53BP1 [5]): bound strongly
binding to a subset of MBT domains on protein domain microarray (subset of MBT domains): bound strongly
binding to yeast Tudor domain SPF30^sp on protein domain microarray [6]: bound strongly
Kd (SPIN1 (SPIN1_50–262)): 15 µM
increase of melting temperature of SPIN1 (recombinant SPIN1): 5 °C
inhibition of H3K4me3 peptide - GST-SPIN1 interaction [1]: higher concentrations of EML405 than EML631–633 were needed to inhibit the interaction
block of SPIN1-TCF4 interaction (SPIN1-TCF4 interaction): blocked this interaction
pulldown of GFP-SPIN1 by tagged compound (GFP-SPIN1(FL)): detected the pulldown of GFP-SPIN1
stabilization of GFP-SPIN1 at high temperatures (CETSA) [2]: stabilization
expression levels of six SPIN1-regulated candidate genes ([7]; 20 μM): decrease in the expression levels of all six candidate genes
SPIN1-overexpression-elevated expression of target genes [8]: dramatically attenuated

COc1cc2c(cc1OCCCN1CCCC1)N=C(N)C21CCC1 [A366]
IC50 [9]: ~0.2 µM
cell-based activity (SPIN1): 100 µM

O=C(c1ccc(C(=O)N2CCC(CCN3CCCC3)CC2)c(Nc2ccc(OCN3CCCC3)cc2)c1)N1CCC(CCN2CCCC2)CC1 [EML631]
Kd (Tudor domains of 53BP1 [10]): < 100 µM and > 100 µM
Kd (Tudor domains of PHF20 [11]): < 100 µM and > 100 µM
Kd (MBT domains of L3MBTL1): < 100 µM and > 100 µM
Kd (MBT domains of L3MBTL3): < 100 µM and > 100 µM
pulldown of SPIN2a/b by tagged compound (SPIN2a/b): reduced pulldown
interaction of tagged compound with SPIN4 (SPIN4): no interaction
transcripts down regulated in both SPIN1 knockdown and compound-treated cells (T778 liposarcoma cells): 655
expression levels of six SPIN1-regulated candidate genes ([7]; 10 μM): decrease in the expression levels of all six candidate genes
GFP-SPIN1 recruitment to promoter regions of rDNA and IL1B [12]: recruitment was blocked
SPIN1-overexpression-elevated expression of target genes [8]: dramatically attenuated
